Measured values as given in US20210169690A1, “Self-Retaining Implantable Drug Delivery Device” (GoldenBiotech, LLC, priority 2019, published 2021).

Assays:
[1] = Korsmeyer-Peppas analysis of drug release data; format: physicochemical
Procedure: To confirm the results obtained based on the Higuchi equation analysis, the data above was also analyzed using the Korsmeyer-Peppas plot, which evaluates the mechanism of drug release by plotting the log of percent drug released over the log time in hours. If n equals 0.45, then Fickian diffusion is indicated for a cylinder (0.42 for cylinder of low aspect ratio). […] As exemplified FIG. 11, data is plotted as the log of cumulative percent drug released on the y-axis and the log time in hours on the x-axis.

[2] = Chemical stability of prostaglandin analogues in PBS, RPHPLC; format: physicochemical; details: PBS at pH 4, 7 and 10; 4° C., 33° C. and 50° C.
Procedure: The chemical stability of prostaglandin analogues was also examined. In these experiments, a prostaglandin analogue was incubated in phospho-buffered saline (PBS) at pH 4, 7 and 10 and at 4° C., 33° C. and 50° C. representing long term storage, eye temperature and accelerate temperature conditions respectively. Analyses were performed by RPHPLC as described in Example 2, noting any hydrolysis products formed. […] This stability is most likely due to the amide linkage in Bimatoprost which is much more hydrolytically stable than the ester linkage in Latanoprost and Travoprost.

In the case of `CC(C)OC(=O)CCC/C=C\C[C@@H]1[C@@H](/C=C/[C@@H](O)COc2cccc(C(F)(F)F)c2)[C@H](O)C[C@@H]1O` [Travoprost], the “Average n Values, Korsmeyer-Peppas Analysis” value ([1]; Drug Loading 2.5%) is reported as 0.543±, the “Average n Values, Korsmeyer-Peppas Analysis” value ([1]; Drug Loading 5%) is reported as 0.507± and the “Average n Values, Korsmeyer-Peppas Analysis” value ([1]; Drug Loading 10%) is reported as 0.453±. The “Average n Values, Korsmeyer-Peppas Analysis, Mean” value ([1]; Mean over drug loadings) was 0.50 ± 0.09 and the “chemical stability (hydrolysis products)” value [2] was “excellent stability”.
